Assay [1] is described as follows: DRUGMATRIX: Glutamate, AMPA radioligand binding (ligand: [3H] AMPA). The following applies: Not Active = under 50% inhibition at 10 µM. Format: cell membranes, Rattus norvegicus, Wistar, Cerebral cortex, Membrane.
The target in assay [2] is T1, 5-hydroxytryptamine receptor 1A (Rattus norvegicus, UniProt P19327). Further: in other assays of this panel Not Active means under 50% inhibition at 10 µM.
T1 sequence (P19327 whole entry): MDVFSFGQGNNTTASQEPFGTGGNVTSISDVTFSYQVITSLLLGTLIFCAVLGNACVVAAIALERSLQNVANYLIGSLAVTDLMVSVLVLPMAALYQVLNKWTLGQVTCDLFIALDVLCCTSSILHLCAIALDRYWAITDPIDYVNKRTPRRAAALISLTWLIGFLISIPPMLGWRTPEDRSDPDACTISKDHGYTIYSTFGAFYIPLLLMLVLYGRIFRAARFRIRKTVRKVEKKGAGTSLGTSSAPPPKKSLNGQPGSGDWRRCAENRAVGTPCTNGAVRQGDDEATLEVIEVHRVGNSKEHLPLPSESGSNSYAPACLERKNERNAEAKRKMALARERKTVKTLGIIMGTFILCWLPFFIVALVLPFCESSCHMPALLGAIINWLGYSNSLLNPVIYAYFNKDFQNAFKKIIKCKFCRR
Format: cell membranes, CHO-K1, Membrane. The following applies: cho-k1.

For the next assay, the target named is Melanocortin receptor 4 (Homo sapiens, UniProt P32245). Format: cell membranes, HEK293, Membrane. The following applies: hek293. Further: in other assays of this panel Not Active means under 50% inhibition at 10 µM.
Assay [3] is described as follows: DRUGMATRIX: Phorbol Ester radioligand binding (ligand: [3H] PDBu). Format: cell membranes, Mus musculus, ICR, Brain, Membrane. Particulars: Not Active = under 50% inhibition at 10 µM.
In another assay the target is T2, Progesterone receptor (Bos taurus, UniProt Q690N0).
T2 sequence (Q690N0 whole entry): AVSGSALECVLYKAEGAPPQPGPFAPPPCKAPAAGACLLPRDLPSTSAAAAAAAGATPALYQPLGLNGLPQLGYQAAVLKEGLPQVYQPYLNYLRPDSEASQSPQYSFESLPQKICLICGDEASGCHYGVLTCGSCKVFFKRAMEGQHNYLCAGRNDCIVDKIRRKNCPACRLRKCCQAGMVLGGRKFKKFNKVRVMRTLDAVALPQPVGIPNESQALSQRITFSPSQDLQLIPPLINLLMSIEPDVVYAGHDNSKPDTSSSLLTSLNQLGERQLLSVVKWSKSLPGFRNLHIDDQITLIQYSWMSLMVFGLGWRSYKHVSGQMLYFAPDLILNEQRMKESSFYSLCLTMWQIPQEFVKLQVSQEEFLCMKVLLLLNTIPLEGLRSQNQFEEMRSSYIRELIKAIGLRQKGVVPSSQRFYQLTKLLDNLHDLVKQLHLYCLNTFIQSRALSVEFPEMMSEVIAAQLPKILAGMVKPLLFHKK
Nature of the assay: DRUGMATRIX: Progesterone radioligand binding (ligand: [3H] R-5020). Format: tissue-based, Uterus. The following applies: Not Active = under 50% inhibition at 10 µM.

In assay [4] the target is Sodium-dependent dopamine transporter (Homo sapiens, UniProt Q01959). Put plainly: DRUGMATRIX: Dopamine Transporter radioligand binding (ligand: [125I] RTI-55). Format: cell membranes, CHO-K1, Membrane. The following applies: Not Active = under 50% inhibition at 10 µM.
Chain of Sodium-dependent dopamine transporter (Q01959 whole entry): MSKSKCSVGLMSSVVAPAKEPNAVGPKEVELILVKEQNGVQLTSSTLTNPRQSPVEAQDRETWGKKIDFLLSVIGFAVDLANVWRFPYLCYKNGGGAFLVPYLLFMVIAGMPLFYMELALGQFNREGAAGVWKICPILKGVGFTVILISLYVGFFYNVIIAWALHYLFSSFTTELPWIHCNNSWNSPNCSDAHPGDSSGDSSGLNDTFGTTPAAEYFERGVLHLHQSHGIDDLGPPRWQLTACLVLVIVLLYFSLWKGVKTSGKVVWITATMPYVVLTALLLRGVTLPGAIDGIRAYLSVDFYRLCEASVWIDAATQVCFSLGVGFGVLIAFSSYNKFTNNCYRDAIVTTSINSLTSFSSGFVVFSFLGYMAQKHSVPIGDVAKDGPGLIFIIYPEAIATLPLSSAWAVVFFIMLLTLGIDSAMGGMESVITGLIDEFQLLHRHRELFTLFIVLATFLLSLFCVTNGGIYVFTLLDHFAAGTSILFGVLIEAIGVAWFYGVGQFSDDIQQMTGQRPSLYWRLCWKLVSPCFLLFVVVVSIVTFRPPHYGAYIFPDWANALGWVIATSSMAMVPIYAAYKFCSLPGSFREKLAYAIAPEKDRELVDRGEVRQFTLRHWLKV

Chain of Melanocortin receptor 4 (P32245 whole entry): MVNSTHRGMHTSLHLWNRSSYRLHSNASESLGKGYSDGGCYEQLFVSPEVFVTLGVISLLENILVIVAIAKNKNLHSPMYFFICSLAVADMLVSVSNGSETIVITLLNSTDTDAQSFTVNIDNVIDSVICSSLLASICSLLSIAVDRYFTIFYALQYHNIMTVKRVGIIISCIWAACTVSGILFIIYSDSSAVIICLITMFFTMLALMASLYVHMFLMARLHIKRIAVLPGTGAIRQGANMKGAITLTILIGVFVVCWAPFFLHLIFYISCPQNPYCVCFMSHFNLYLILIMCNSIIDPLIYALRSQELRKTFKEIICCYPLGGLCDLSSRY

The IC50 is the concentration that gives 50% inhibition. As a reminder, the Ki is the dissociation constant of the complex between target and ligand, obtained from inhibition or displacement. With `C=CCC1(C(C)CCC)C(=O)NC(=O)NC1=O` (centres undefined) [SECOBARBITAL], the IC50 result (in assay [1]; in assay [2]; against Melanocortin receptor 4; in assay [3]; on Progesterone receptor; in assay [4] (cho-k1)) was “Not Active” throughout. The Ki entry in assay [1] and in assay [3] was “Not Active” throughout.
In the case of `C[C@@H]1CN(c2c(F)c(N)c3c(=O)c(C(=O)O)cn(C4CC4)c3c2F)C[C@H](C)N1` [SPARFLOXACIN], the half-inhibitory concentration (IC50) result (in assay [1]; in assay [2]; against Melanocortin receptor 4; in assay [3]; at Progesterone receptor; in assay [4] (cho-k1)) was “Not Active” throughout. Also, the inhibition constant Ki result in assay [1] and in assay [3] was “Not Active” each time.
On to `Cc1noc(NS(=O)(=O)c2ccc(N)cc2)c1C` [SULFISOXAZOLE], for which the IC50 entry (in assay [1]; in assay [2]; against Melanocortin receptor 4; in assay [3]; at Progesterone receptor; in assay [4] (cho-k1)) was “Not Active” each time. Moreover, the Ki result in assay [1] and in assay [3] was “Not Active” each time.
As for `CSc1ccc(/C=C2/C(C)=C(CC(=O)O)c3cc(F)ccc32)cc1` [SULINDAC SULFIDE], the IC50 entry (in assay [1]; in assay [2]; at Melanocortin receptor 4; in assay [3]; at Progesterone receptor; in assay [4] (cho-k1)) was “Not Active” each time. Moreover, the Ki result in assay [1] and in assay [3] was “Not Active” throughout.
For the compound `Nc1c2c(nc3ccccc13)CCCC2` [TACRINE], the IC50 entry (in assay [1]; in assay [2]; against Melanocortin receptor 4; in assay [3]; at Progesterone receptor; in assay [4] (cho-k1)) was “Not Active” throughout. For the same compound, the Ki result in assay [1] and in assay [3] was “Not Active” in each case.
Take `Nc1nc2nc[nH]c2c(=S)[nH]1` [THIOGUANINE]: the IC50 result (in assay [1]; in assay [2]; at Melanocortin receptor 4; in assay [3]; at Progesterone receptor; in assay [4] (cho-k1)) was “Not Active” throughout. The Ki result in assay [1] and in assay [3] was “Not Active” each time.
In the case of `Cc1cccc(N(C)C(=S)Oc2ccc3ccccc3c2)c1` [TOLNAFTATE], the IC50 entry (in assay [1]; in assay [2]; against Melanocortin receptor 4; in assay [3]; on Progesterone receptor; in assay [4] (cho-k1)) was “Not Active” in each case. Besides, the Ki entry in assay [1] and in assay [3] was “Not Active” each time.
In the case of `NC[C@H]1CC[C@H](C(=O)O)CC1` [TRANEXAMIC ACID], the 50% inhibitory concentration (IC50) entry (in assay [1]; in assay [2]; on Melanocortin receptor 4; in assay [3]; on Progesterone receptor; in assay [4] (cho-k1)) was “Not Active” throughout. Moreover, the Ki result in assay [1] and in assay [3] was “Not Active” in each case.
Turning to `CC1(C)O[C@@H]2C[C@H]3[C@@H]4CCC5=CC(=O)C=C[C@]5(C)[C@@]4(F)[C@@H](O)C[C@]3(C)[C@]2(C(=O)CO)O1` [TRIAMCINOLONE ACETONIDE], the IC50 result in assay [1] is “Not Active”; in assay [2] it was “Not Active”; against Melanocortin receptor 4 it was “Not Active”; in assay [3], “Not Active”; on Progesterone receptor (read-out: IC50), 0.179 µM; in assay [4] (cho-k1), “Not Active”. In addition, the Ki result is “Not Active” in assay [1], “Not Active” in assay [3] and 0.023 µM at Progesterone receptor (read-out: Ki).
For `NS(=O)(=O)c1cc2c(cc1Cl)NC(C(Cl)Cl)NS2(=O)=O` (centres undefined) [TRICHLORMETHIAZIDE], the IC50 result (in assay [1]; in assay [2]; against Melanocortin receptor 4; in assay [3]; on Progesterone receptor; in assay [4] (cho-k1)) was “Not Active” each time. The Ki entry in assay [1] and in assay [3] was “Not Active” in each case.
On to `Cc1c(C)c2c(c(C)c1O)CCC(C)(COc1ccc(CC3SC(=O)NC3=O)cc1)O2` (centres undefined) [TROGLITAZONE], for which the IC50 result (in assay [1]; in assay [2]; against Melanocortin receptor 4; in assay [3]; on Progesterone receptor; in assay [4] (cho-k1)) was “Not Active” each time. Moreover, the Ki entry in assay [1] and in assay [3] was “Not Active” each time.
Consider `N[C@@H]1[C@H]2CN(c3nc4c(cc3F)c(=O)c(C(=O)O)cn4-c3ccc(F)cc3F)C[C@@H]12` [TROVAFLOXACIN], for which the IC50 entry in assay [1] was “Not Active”; in assay [2] it was “Not Active”; against Melanocortin receptor 4, “Not Active”; in assay [3], “Not Active”; at Progesterone receptor it was “Not Active”; in assay [4] (read-out: IC50), 62.2 µM. Moreover, the values for the Ki result in assay [1], in assay [3] and in assay [4] (read-out: Ki) were “Not Active”, “Not Active” and 49.4 µM, respectively.
As for `N#CC(C#N)=Cc1ccc(O)c(O)c1` [TYRPHOSTIN 23], the IC50 entry (in assay [1]; in assay [2]; at Melanocortin receptor 4; in assay [3]; at Progesterone receptor; in assay [4] (cho-k1)) was “Not Active” in each case. Moreover, the Ki result in assay [1] and in assay [3] was “Not Active” each time.
Turning to `CC[C@]1(O)C[C@H]2CN(CCc3c([nH]c4ccccc34)[C@@](C(=O)OC)(c3cc4c(cc3OC)N(C=O)[C@H]3[C@@](O)(C(=O)OC)[C@H](OC(C)=O)[C@]5(CC)C=CCN6CC[C@]43[C@@H]65)C2)C1` [VINCRISTINE], the IC50 entry (in assay [1]; in assay [2]; against Melanocortin receptor 4; in assay [3]; at Progesterone receptor; in assay [4] (cho-k1)) was “Not Active” each time. For the same compound, the inhibition constant Ki entry in assay [1] and in assay [3] was “Not Active” throughout.
Consider `CCCOc1ccccc1-c1nc2nn[nH]c2c(=O)[nH]1` [ZAPRINAST], for which the IC50 entry (in assay [1]; in assay [2]; at Melanocortin receptor 4; in assay [3]; on Progesterone receptor; in assay [4] (cho-k1)) was “Not Active” throughout. Also, the Ki entry in assay [1] and in assay [3] was “Not Active” in each case.
For the compound SODIUM NITROPRUSSIDE, the IC50 entry (in assay [1]; in assay [2]; against Melanocortin receptor 4; in assay [3]; on Progesterone receptor; in assay [4] (cho-k1)) was “Not Active” throughout. In addition, the Ki entry (in assay [1]; in assay [2]; at Melanocortin receptor 4; in assay [3]; at Progesterone receptor; in assay [4] (cho-k1)) was “Not Active” throughout.

The values above are taken from ChEMBL document CHEMBL1909046, “DrugMatrix in vitro pharmacology data”.
